Converted amounts (≈) assume the structure as drawn. Each block holds one compound with its values, some of them ahead of it.
Legend:
Assay in all cases: ≥ marks a high value that may be exact or a test limit, other limits are often not marked, values filed in µg/mL are converted to µM
[1] = test system: Candida albicans ATCC 24433
[2] = test system: Staphylococcus epidermidis ATCC 12228
[3] = test system: Escherichia coli ATCC 25922
[4] = test system: Escherichia coli K12 MG1655
Bacillus subtilis 168 HT = test system: Bacillus subtilis 168 HT
[5] = test system: Staphylococcus aureus USA 300 LAC
[6] = test system: Klebsiella pneumoniae ATCC 13883
[7] = test system: Klebsiella pneumoniae ATCC BAA-2146
[8] = test system: Klebsiella pneumoniae ATCC 700603
[9] = test system: Bacillus subtilis ATCC 6051
[10] = test system: Acinetobacter baumannii ATCC 19606
[11] = test system: Cryptococcus neoformans ATCC 208821
Klebsiella pneumoniae = test system: Klebsiella pneumoniae
Acinetobacter baumannii = test system: Acinetobacter baumannii
[12] = test system: Candida albicans ATCC 90028
[13] = test system: Pseudomonas aeruginosa ATCC 27853
[14] = test system: Staphylococcus aureus ATCC 43300
Pseudomonas aeruginosa = test system: Pseudomonas aeruginosa
[15] = test system: Staphylococcus aureus ATCC 25923
[16] = test system: Stenotrophomonas maltophilia ATCC 13637
Streptococcus pyogenes = test system: Streptococcus pyogenes
Proteus mirabilis = test system: Proteus mirabilis
[17] = test system: Staphylococcus epidermidis
[18] = test system: Micrococcus luteus ATCC 10240
[19] = test system: Candida albicans ATCC 90112
[20] = test system: Bacillus subtilis ATCC 6633
[21] = test system: Staphylococcus aureus NCTC 10788
[22] = test system: Escherichia coli NCTC 10418
[23] = test system: Candida albicans NCYC 1467
Micrococcus luteus A270 = test system: Micrococcus luteus A270
[24] = test system: Serratia marcescens ATCC 4112
[25] = test system: Staphylococcus aureus ATCC 29213
Candida albicans MDM8 = test system: Candida albicans MDM8
Escherichia coli MG1655 = test system: Escherichia coli MG1655
[26] = test system: Listeria monocytogenes ATCC 19115
[27] = test system: Pseudomonas aeruginosa PAO1
[28] = test system: Staphylococcus aureus USA 300

Compound: CC[C@H](C)[C@H](NC(=O)CNC(=O)CNC(=O)[C@H](C)NC(=O)[C@@H](NC(=O)[C@H](CCCCN)NC(=O)[C@@H]1CCCN1C(=O)[C@@H](NC(=O)[C@H](CC(C)C)NC(=O)[C@H](CO)NC(=O)[C@H](CC(C)C)NC(=O)[C@@H](N)Cc1ccccc1)[C@@H](C)CC)[C@@H](C)CC)C(=O)N[C@@H](C)C(=O)N[C@@H](CO)C(=O)N[C@@H](CC(C)C)C(=O)N[C@H](C(=O)N[C@@H](CCCCN)C(=O)N[C@@H](CC(=O)O)C(=O)N[C@@H](CC(C)C)C(N)=O)C(C)C [FLSLIPKIAGGIASLVKDL]
MIC [1]: ≥ 100 µM | MIC [2]: 100 µM (≈ 195 µg/mL) | MIC [3]: 100 µM (≈ 195 µg/mL)

Compound: CC[C@H](C)[C@H](NC(=O)CNC(=O)CNC(=O)[C@H](C)NC(=O)[C@@H](NC(=O)[C@H](CCCCN)NC(=O)[C@@H]1CCCN1C(=O)[C@@H](NC(=O)[C@H](CC(C)C)NC(=O)[C@H](CO)NC(=O)[C@H](CC(C)C)NC(=O)[C@@H](N)Cc1ccccc1)[C@@H](C)CC)[C@@H](C)CC)C(=O)N[C@@H](C)C(=O)N[C@@H](CO)C(=O)N[C@@H](CC(C)C)C(=O)N[C@H](C(=O)N[C@@H](CCCCN)C(=O)N[C@@H](CC(N)=O)C(=O)N[C@@H](CC(C)C)C(N)=O)C(C)C [FLSLIPKIAGGIASLVKNL]
MIC [1]: ≥ 50 µM | MIC [2]: 6.25 µM (≈ 12.2 µg/mL) | MIC [3]: 25 µM (≈ 48.8 µg/mL)

Compound: CC[C@H](C)[C@H](NC(=O)[C@@H](N)CCCCN)C(=O)N[C@@H](Cc1c[nH]c2ccccc12)C(=O)N[C@@H](Cc1c[nH]c2ccccc12)C(=O)N[C@@H](Cc1c[nH]c2ccccc12)C(=O)N[C@@H](Cc1c[nH]c2ccccc12)C(=O)N[C@@H](CC(C)C)C(=O)N[C@@H](CCCN=C(N)N)C(N)=O [KIWWWWLR]
MIC [5]: 3.1 µM (≈ 3.94 µg/mL) | MIC [3]: 8.8 µM (≈ 11.2 µg/mL) | MIC [6]: 12.5 µM (≈ 15.9 µg/mL)

Compound: CC[C@H](C)[C@@H]1NC(=O)CNC(=O)[C@H](CCCN=C(N)N)NC(=O)[C@H](Cc2ccc(O)cc2)NC(=O)[C@@H]2CSSC[C@H](NC1=O)C(=O)N[C@@H](Cc1ccc(O)cc1)C(=O)N[C@@H](C)C(=O)N[C@@H](CCCN=C(N)N)C(=O)N[C@H](C(=O)N[C@@H](CCCN=C(N)N)C(=O)O)CSSC[C@H](NC(=O)[C@H](Cc1c[nH]c3ccccc13)NC(=O)[C@@H](N)CCCCN)C(=O)N[C@@H](Cc1ccccc1)C(=O)N[C@@H](CCCN=C(N)N)C(=O)N[C@@H](C(C)C)C(=O)N2 [KWCFRVCYRGICYARCR]
MIC [7]: 0.115 µM (≈ 0.25 µg/mL) | MIC [8]: 0.229 µM (≈ 0.499 µg/mL) | MIC [9]: 0.0572 µM (≈ 0.125 µg/mL) | MIC [10]: 0.0572 µM (≈ 0.125 µg/mL) | MIC [11]: 0.115 µM (≈ 0.25 µg/mL) | MIC (Klebsiella pneumoniae): 0.458 µM (≈ 0.998 µg/mL) | MIC (Acinetobacter baumannii): 0.0572 µM (≈ 0.125 µg/mL) | MIC [12]: 3.66 µM (≈ 7.99 µg/mL) | MIC [13]: 0.0572 µM (≈ 0.125 µg/mL) | MIC [14]: 0.229 µM (≈ 0.499 µg/mL) | MIC [3]: 0.0572 µM (≈ 0.125 µg/mL) | MIC [6]: 0.0275 µM (≈ 0.0599 µg/mL) | MIC (Pseudomonas aeruginosa): 0.115 µM (≈ 0.25 µg/mL)

Compound: CC(C)C[C@H](NC(=O)[C@H](CCCN=C(N)N)NC(=O)[C@H](CC(N)=O)NC(=O)[C@H](CC(C)C)NC(=O)[C@H](CCCCN)NC(=O)[C@H](CCCCN)NC(=O)[C@H](CC(C)C)NC(=O)[C@@H](NC(=O)[C@@H](N)CC(N)=O)C(C)C)C(=O)N[C@@H](CCCCN)C(=O)N[C@@H](CCC(=O)O)C(=O)N[C@@H](CCCCN)C(=O)N[C@@H](CC(N)=O)C(=O)N[C@@H](CCCCN)C(=O)N[C@@H](C)C(=O)N[C@@H](CCCCN)C(=O)N[C@@H](CC(N)=O)C(=O)N[C@@H](CO)C(=O)N[C@@H](CCCCN)C(=O)N[C@@H](CCC(=O)O)C(=O)N[C@@H](CC(N)=O)C(=O)N[C@@H](CC(N)=O)C(=O)O [NVLKKLNRLKEKNKAKNSKENN]
MIC [21]: ≥ 196 µM | MIC [22]: ≥ 196 µM | MIC [13]: > 196 µM | MIC [23]: ≥ 98 µM

Compound: CC(C)C[C@H](NC(=O)[C@H](CO)NC(=O)[C@H](Cc1ccccc1)NC(=O)[C@@H]1CCCN1C(=O)[C@@H](N)CCC(N)=O)C(=O)N[C@@H](CCC(=O)O)C(=O)N[C@@H](CCCN=C(N)N)C(=O)N[C@@H](Cc1c[nH]c2ccccc12)C(=O)O [QPFSLERW]
MIC (Micrococcus luteus A270): ≥ 94.5 µM | MIC [24]: ≥ 47.2 µM | MIC [25]: 189 µM (≈ 201 µg/mL) | MIC [2]: 189 µM (≈ 201 µg/mL) | MIC (Candida albicans MDM8): ≥ 189 µM

Compound: CC[C@H](C)[C@H](NC(=O)[C@H](CCCN=C(N)N)NC(=O)[C@H](CCCN=C(N)N)NC(=O)[C@H](CCCN=C(N)N)NC(=O)[C@H](Cc1c[nH]c2ccccc12)NC(=O)[C@H](Cc1c[nH]c2ccccc12)NC(=O)[C@@H](N)Cc1c[nH]c2ccccc12)C(=O)N[C@@H](Cc1c[nH]c2ccccc12)C(N)=O [WWWRRRIW]
MIC [27]: 35.4 µM (≈ 47.5 µg/mL) | MIC [28]: 12.5 µM (≈ 16.8 µg/mL) | MIC [5]: 12.5 µM (≈ 16.8 µg/mL) | MIC [3]: 25 µM (≈ 33.6 µg/mL) | MIC [6]: 25 µM (≈ 33.6 µg/mL)

Other lines, results leading:

MIC [4]: 10.6 µM (≈ 16 µg/mL) | MIC (Bacillus subtilis 168 HT): 21.2 µM (≈ 32 µg/mL)
Compound: CC[C@H](C)[C@H](N)C(=O)N[C@@H](CC(N)=O)C(=O)N[C@H](C(=O)N[C@H](C(=O)N[C@@H](CC(N)=O)C(=O)N[C@@H](C)C(=O)N1CCC[C@H]1C(=O)N[C@@H](CC(C)C)C(=O)N[C@@H](CCC(N)=O)C(=O)NCC(=O)N[C@@H](Cc1ccccc1)C(=O)N[C@@H](CCCCN)C(=O)N[C@H](C(=O)N[C@@H](C)C(=O)O)[C@@H](C)CC)[C@@H](C)CC)[C@@H](C)CC [INIINAPLQGFKIA]

MIC [15]: 60 µM (≈ 97.4 µg/mL) | MIC [16]: 15 µM (≈ 24.4 µg/mL) | MIC (Streptococcus pyogenes): 15 µM (≈ 24.4 µg/mL) | MIC (Proteus mirabilis): ≥ 60 µM | MIC [17]: 30 µM (≈ 48.7 µg/mL) | MIC [13]: 30 µM (≈ 48.7 µg/mL) | MIC [3]: 30 µM (≈ 48.7 µg/mL) | MIC [18]: 15 µM (≈ 24.4 µg/mL) | MIC [19]: 7.5 µM (≈ 12.2 µg/mL) | MIC [20]: 7.5 µM (≈ 12.2 µg/mL)
Compound: CC[C@H](C)[C@H](NC(=O)[C@H](CC(C)C)NC(=O)CNC(=O)[C@H](CCCCN)NC(=O)[C@H](CC(C)C)NC(=O)[C@H](CC(N)=O)NC(=O)[C@@H](N)CC(C)C)C(=O)N[C@@H](CCCCN)C(=O)N[C@@H](CCCCN)C(=O)N[C@H](C(=O)N[C@@H](C)C(=O)N[C@@H](CO)C(=O)N[C@@H](CC(C)C)C(=O)N[C@@H](CC(C)C)C(=O)N[C@@H](CC(N)=O)C(=O)O)C(C)C [LNLKGLIKKVASLLN]

MIC (Escherichia coli MG1655): ≥ 99.1 µM | MIC (Bacillus subtilis 168 HT): ≥ 99.1 µM
Compound: CC[C@H](C)[C@H](NC(=O)[C@H](CCCCN)NC(=O)[C@H](CCCCN)NC(=O)[C@H](CC(C)C)NC(=O)[C@H](Cc1cnc[nH]1)NC(=O)[C@H](CCCCN)NC(=O)[C@H](CCCCN)NC(=O)[C@H](CC(C)C)NC(=O)[C@@H](N)CCCN=C(N)N)C(=O)N[C@@H](CCCCN)C(=O)O [RLKKHLKKIK]

MIC [26]: ≥ 382 µM
Compound: CC(C)C[C@H](NC(=O)[C@H](Cc1ccccc1)NC(=O)[C@@H]1CCCN1C(=O)[C@@H]1CCCN1C(=O)[C@H](CC(N)=O)NC(=O)[C@@H](NC(=O)[C@@H](NC(=O)[C@@H]1CCCN1C(=O)[C@@H](N)[C@@H](C)O)C(C)C)C(C)C)C(=O)N[C@@H](CCC(N)=O)C(=O)N[C@@H](CCC(N)=O)C(=O)N[C@H](C(N)=O)[C@@H](C)O [TPVVNPPFLQQT]
